Measured values reported in the CheMixHub viscosity set.

Experiment: xn = mol fraction of the nth substance listed

Cc1cccc(N)c1 + C1CCCCC1
303.15 K, 101.33 kPa
Details	viscosity [mPa·s]
x1 = 0.2	0.95
x1 = 0.398	1.13
x1 = 0.559	1.35
x1 = 0.786	1.88

C1CCC(C2CCCCC2)CC1 + C1CC[C@H]2CCCC[C@@H]2C1
viscosity [mPa·s], 102 kPa
Details	x2 = 0.1185	x2 = 0.2312	x2 = 0.3405	x2 = 0.4451	x2 = 0.546	x2 = 0.6433	x2 = 0.7374	x2 = 0.828	x2 = 0.9154
293.15 K	3.72	3.43	3.17	2.96	2.77	2.6	2.45	2.33	2.21
303.15 K	2.95	2.74	2.56	2.4	2.27	2.15	2.03	1.94	1.85
313.15 K	2.39	2.24	2.11	1.99	1.89	1.8	1.71	1.64	1.57
323.15 K	1.98	1.87	1.77	1.68	1.6	1.52	1.46	1.4	1.34

Cc1cccc(N)c1 + CC1CCCCC1
303.15 K, 101.33 kPa
Details	viscosity [mPa·s]
x1 = 0.204	0.79
x1 = 0.4	0.96
x1 = 0.6	1.25
x1 = 0.8	1.75

CCCCOCCOCCOCCCC + CC1COC(=O)O1
viscosity [mPa·s], 101.3 kPa
Details	298.15 K	308.15 K	318.15 K
x1 = 0.007	2.562	2.064	1.704
x1 = 0.0158	2.574	2.086	1.721
x1 = 0.059	2.676	2.174	1.735
x1 = 0.1317	2.748	2.244	1.768
x1 = 0.2166	2.735	2.263	1.773
x1 = 0.3183	2.7	2.187	1.729
x1 = 0.356	2.674	2.161	1.712
x1 = 0.3871	2.649	2.141	1.695
x1 = 0.4126	2.635	2.129	1.686
x1 = 0.4929	2.579	2.086	1.649
x1 = 0.5658	2.534	2.051	1.623
x1 = 0.5869	2.526	2.045	1.62
x1 = 0.6616	2.487	2.013	1.595
x1 = 0.7058	2.475	1.999	1.584
x1 = 0.748	2.469	1.992	1.566
x1 = 0.8266	2.402	1.954	1.537
x1 = 0.9183	2.323	1.899	1.489

CN1CCCN2CCCN=C12 + CC(=O)O
100 kPa, x1 = 0.1125
Details	viscosity [mPa·s]
294.45 K	12.9
298.17 K	11.3
308.1 K	8.1
323.06 K	5.4

CCCCCCCCCCCC(=O)O + CC(C)[C@@H]1CC[C@@H](C)C[C@H]1O
viscosity [mPa·s]
Details	293.15 K	298.15 K	303.15 K	308.15 K	313.15 K	318.15 K	323.15 K
100 kPa, x1 = 0.25	–	28.1	20.91	15.93	12.4	9.84	7.94
100 kPa, x2 = 0.33	33.06	24.42	18.63	14.51	11.45	9.293	7.61
101 kPa, x1 = 0.333	21.81	–	12.5	–	7.657	–	5.112

CCCC[N+](CCCC)(CCCC)CCCC.[Br-] + CC(O)CO
101 kPa, x1 = 0.2
Details	viscosity [mPa·s]
298.15 K	96.3
303.15 K	71.6
308.15 K	54.5
313.15 K	42.1
318.15 K	33.2
323.15 K	26.6

CCCCCCCCCCCCCC(=O)OCC + CCC1CCCCC1
viscosity [mPa·s], 100 kPa
Details	x2 = 0.0998	x2 = 0.2	x2 = 0.3001	x2 = 0.4002	x2 = 0.5	x2 = 0.6	x2 = 0.6999	x2 = 0.8	x2 = 0.9
293.15 K	4.251	3.768	3.305	2.865	2.44	2.053	1.709	1.387	1.105
298.15 K	3.763	3.351	2.962	2.582	2.221	1.88	1.572	1.286	1.034
303.15 K	3.361	3.011	2.672	2.34	2.022	1.726	1.45	1.199	0.972
308.15 K	3.01	2.709	2.411	2.12	1.845	1.579	1.335	1.11	0.904
313.15 K	2.694	2.432	2.18	1.925	1.685	1.454	1.234	1.031	0.839
318.15 K	2.461	2.227	2	1.775	1.558	1.353	1.152	0.964	0.791
323.15 K	2.242	2.032	1.829	1.628	1.436	1.251	1.071	0.9	0.736

C=C1CCC2CC1C2(C)C (stereo not drawn) + CCCCCC
298.15 K, 101.33 kPa
Details	viscosity [mPa·s]
x2 = 0.0421	1.455
x2 = 0.0626	1.392
x2 = 0.2031	1.055
x2 = 0.2799	0.914
x2 = 0.3765	0.772
x2 = 0.4939	0.634
x2 = 0.5597	0.57
x2 = 0.6601	0.488
x2 = 0.7454	0.427
x2 = 0.8217	0.381
x2 = 0.8935	0.344
x2 = 0.9595	0.312

CCCCCCCCCCCCOC(C)=O + CCCCCC
303.15 K, 101.3 kPa
Details	viscosity [mPa·s]
x1 = 0.1919	0.5038
x1 = 0.3182	0.7197
x1 = 0.4783	1.079
x1 = 0.522	1.2
x1 = 0.748	1.958

Cc1cccc(N)c1 + CCCCCC
viscosity [mPa·s], 101.33 kPa
Details	x1 = 0.236	x1 = 0.396	x1 = 0.579	x1 = 0.787
295.15 K	0.46	0.69	0.95	1.54
305.15 K	0.39	0.55	0.77	1.25

CCCCCCCCCCCC(=O)O + CCCCCCCCCC(=O)O
100 kPa, x1 = 0.33
Details	viscosity [mPa·s]
293.15 K	12.89
298.15 K	10.76
303.15 K	9.199
308.15 K	7.939
313.15 K	6.909
318.15 K	6.059
323.15 K	5.349

CCCCC(=O)O + CCCCCCCCCCO
viscosity [mPa·s], 100 kPa
Details	x1 = 0.0851	x1 = 0.1742	x1 = 0.2512	x1 = 0.3616	x1 = 0.4363	x1 = 0.5587	x1 = 0.6618	x1 = 0.7474	x1 = 0.8618	x1 = 0.9312
293.15 K	12.76	11.18	9.99	8.58	7.71	6.4	5.35	4.5	3.44	2.83
303.15 K	8.73	7.68	6.9	5.97	5.41	4.56	3.89	3.35	2.65	2.25
313.15 K	6.17	5.54	5.06	4.45	4.07	3.47	2.99	2.61	2.12	1.83
323.15 K	4.49	4.09	3.79	3.38	3.12	2.7	2.37	2.1	1.75	1.55

NCCNCCN + CCCCCCCCCCO
viscosity [mPa·s], 101 kPa
Details	298.15 K	303.15 K	308.15 K
x1 = 0.0564	12.02	9.924	8.366
x1 = 0.1003	12.52	10.34	8.775
x1 = 0.1543	12.81	10.46	8.862
x1 = 0.2007	12.75	10.39	8.738
x1 = 0.259	12.43	10.11	8.451
x1 = 0.3083	12	9.746	8.092
x1 = 0.4061	10.91	8.874	7.255
x1 = 0.5034	9.787	7.869	6.538
x1 = 0.6067	8.422	6.913	5.779
x1 = 0.7075	7.345	6.087	5.117
x1 = 0.8062	6.406	5.281	4.552
x1 = 0.852	6.037	4.932	4.298
x1 = 0.9067	5.656	4.678	4.065
x1 = 0.9524	5.499	4.556	3.897

CCCCC(=O)O + CCCCCCCCCO
viscosity [mPa·s], 100 kPa
Details	x1 = 0.0827	x1 = 0.1635	x1 = 0.2318	x1 = 0.3519	x1 = 0.4517	x1 = 0.5569	x1 = 0.6472	x1 = 0.7328	x1 = 0.8691	x1 = 0.9502
293.15 K	10.14	8.95	8.08	6.89	6.05	5.25	4.6	4	3.09	2.56
303.15 K	6.95	6.12	5.53	4.73	4.16	3.64	3.22	2.86	2.32	2.03
313.15 K	5.09	4.64	4.3	3.78	3.39	2.99	2.67	2.38	1.95	1.71
323.15 K	3.76	3.47	3.26	2.92	2.66	2.39	2.17	1.96	1.64	1.46

CCCC[N+](CCCC)(CCCC)CCCC.[Br-] + CCCCCCCCCO
101.3 kPa, x1 = 0.2
Details	viscosity [mPa·s]
293.15 K	56.57
298.15 K	43.65
303.15 K	35.27
308.15 K	28.53
313.15 K	23.29
318.15 K	19.13
323.15 K	15.99

CCCCC(=O)O + CCCCCCCCO
viscosity [mPa·s], 100 kPa
Details	x1 = 0.0831	x1 = 0.1619	x1 = 0.2381	x1 = 0.3512	x1 = 0.4418	x1 = 0.5665	x1 = 0.6539	x1 = 0.7441	x1 = 0.8551	x1 = 0.9417
293.15 K	8.14	7.31	6.64	5.83	5.25	4.52	4.04	3.56	2.99	2.55
303.15 K	5.85	5.4	5.01	4.47	4.06	3.51	3.14	2.78	2.36	2.06
313.15 K	4.28	3.97	3.7	3.33	3.06	2.7	2.46	2.21	1.93	1.71
323.15 K	3.21	3.01	2.83	2.59	2.4	2.15	1.99	1.82	1.61	1.45

NCCNCCN + CCCCCCCCO
viscosity [mPa·s], 101 kPa
Details	298.15 K	303.15 K	308.15 K
x1 = 0.0574	8.191	6.649	5.637
x1 = 0.1135	8.77	7.063	5.975
x1 = 0.1584	9.103	7.248	6.111
x1 = 0.2	9.198	7.3	6.14
x1 = 0.2521	9.202	7.268	6.096
x1 = 0.311	9.044	7.129	5.957
x1 = 0.4024	8.532	6.792	5.691
x1 = 0.5076	7.72	6.264	5.244
x1 = 0.6106	6.988	5.798	4.877
x1 = 0.7085	6.366	5.286	4.493
x1 = 0.8064	6.017	4.915	4.228
x1 = 0.8556	5.901	4.791	4.101
x1 = 0.9033	5.791	4.679	3.999
x1 = 0.9524	5.699	4.584	3.889
